In data set [1] the test system is non-dividing p24+ primary CD4+ T cells. The data set is described as follows: Frequency of non-dividing p24+ latent primary CD4+ T cells in vitro. Type of data set: cell-based, human.
Data set [2] relates to HLA-DR and CD163 in primary human Mϕ. The data set is described as follows: HIV-induced upregulation of activation markers HLA-DR and CD163 in primary human macrophages. Type of data set: cell-based. An excerpt: Mϕ and monocytes were isolated as previously described. […] Cells were maintained for 6 days before viral quantification (p24-ELISA). For in vitro activation marker studies, CD14^+ monocytes or fully differentiated (CD14^−/CD11b^+) Mϕ were used. […] The method used to differentiate Mϕ (CD14^−/CD11b^+) has been validated by our group to ensure that these cells are no longer expressing monocyte marker CD14 and are mature Mϕ (CD11b expression). […] Miltenyi Biotec, San Diego, CA). Mϕ and monocytes were treated with various concentrations of drug for 6 days and stained with Near-IR live/dead dye and quantified by FACS. Antiviral potency was calculated as previously described. […] Cells were harvested and stained for CD14^+ (FITC)/CD16^+ (APC) to quantify HIV-induced activation or impact of drugs on block of these markers.

For data set [3], the system named is HIV replication in primary PBM cells. As to the kind of experiment: Antiviral activity in activated peripheral blood mononuclear (PBM) cells. The data set is classed as cell-based, HIV-1. To be noted: for EC90: read-out: EC90 inhibition of HIV replication in PBM cells.
In the next data set the test system is HIV-1baL. As to the kind of experiment: Antiviral activity in primary human macrophages (p24 ELISA). Type of data set: cell-based. To be noted: for EC90: read-out: EC90 inhibition of HIV replication in macrophages. An excerpt: Mϕ and monocytes were isolated as previously described. […] Cells were maintained for 6 days before viral quantification (p24-ELISA). For in vitro activation marker studies, CD14^+ monocytes or fully differentiated (CD14^−/CD11b^+) Mϕ were used. Monocytes were used as a model to mimic HIV-induced activation that transpires in the periphery, wherein presence or internalization of HIV-1 in monocytes confers activation (CD14^+/CD16^+) and subsequent trafficking of “Trojan horse” monocytes across and within the BBB [11, 12]. The method used to differentiate Mϕ (CD14^−/CD11b^+) has been validated by our group to ensure that these cells are no longer expressing monocyte marker CD14 and are mature Mϕ (CD11b expression). Mϕ or monocytes were treated with various concentrations of drug prior to infection (HIV-1baL) and maintained for 3 days before quantification of HLA-DR, CD163 (Mϕ), or CD14/CD16 (monocytes; Miltenyi Biotec, San Diego, CA). Mϕ and monocytes were treated with various concentrations of drug for 6 days and stained with Near-IR live/dead dye and quantified by FACS. Antiviral potency was calculated as previously described.
(An ELISA detects its analyte on a solid surface through an enzyme-linked reagent.)

The subject of a further data set is J-lat T cells. As to the kind of experiment: TNF-α-induced reactivation of latent HIV-1 in J-lat T cells. The data set is classed as cell-based, human.
Data set [4] has as its system latent HIV-1 in primary human Mϕ. As to the kind of experiment: PMA-induced reactivation of HIV-1 from latent primary human macrophages (p24 ELISA). The data set is classed as cell-based. The procedure: Primary human Mϕ were prepared as described above and infected with an MOI of 0.5 with HIV-1BaL for 4 h prior to removal of virus and culture in virus-free medium. Supernatants were collected every 5 days, and extracellular p24 production was monitored (p24 ELISA, ABL, Inc.). Fresh culture medium was added to cultures every 5 days as supernatants were collected for p24 analysis. […] After 24 h post-reactivation, cellular supernatants were collected, and extracellular reactivated p24 was quantified (p24 ELISA). Percent inhibition of reactivation was calculated versus no drug controls, and EC50/90 were calculated as previously described.

Details of data set [5]: method as in Olumiant.com. To be noted: at concentrations more than 2 logs above concentrations in the murine model; ref Olumiant.com; cited from earlier work.
A short description of data set [6]: Pharmacokinetics of baricitinib in mouse plasma and brain after single SC dose (LC-MS/MS). Type of data set: in vivo, SCID mice. As to conditions: for Cmax: SCID mice. The procedure: One, 4, 8, and 24 h after drug inoculation, mice were sacrificed and whole blood was collected immediately followed by cardiac perfusion with PBS prior to the extraction of brain tissues. After brain extraction, posterior fossa (the cerebellum and brainstem) was taken, snap frozen, and stored at − 70 °C. Posterior fossa from each mouse was then weighed and homogenized in a mixed water and methanol (2:1) solution. The homogenates were then centrifuged, and the pellet discarded. The supernatant was dried by evaporation using nitrogen gas, resuspended in 1 mL water, and put through Isolute-XL C18 columns (Biotage, Uppsala, Sweden). Drug was then eluted with acetonitrile and subsequently dried. […] Chromatographic separation was performed by Ultimate 3000 LC system (Thermo Scientific, MA, USA), on a Kinetex XB-C18 column (50 × 2.1 mm) with a 2.6-μm particle size (Phenomenex, CA, USA). The mobile phase A consisted of 0.1% formic acid in water, and the mobile phase B consisted of methanol. Isocratic elution was used for the separation with mobile phase A:B at 25:75 (v/v). The column was maintained at ambient temperature. The flow rate was maintained at 250 μL/min, and a 20-μL injection was used. An API5000 triple quadrupole mass spectrometer (ABsciex, MA, USA) was used for detection, with electrospray ionization in positive ion mode. The mass spectrum parameters for the analytes were set as follows: ion spray voltage, 5500 V; curtain gas, 25 psi; ion source gas 1, 40 psi; ion source gas 2, 40 psi; source temperature, 500 °C; and collision gas, 5 psi. […] Analyst software version 1.5.2 was used to operate the mass spectrometer and to perform data analysis. […] The calibration curves had r^2 value greater than 0.99.

Data set [7] concerns HAND mice (IC injection of HIV-infected human MDM). The data set is described as follows: Brain HAND markers by flow cytometry in SCID mouse HAND model. The data set is classed as in vivo. As to conditions: day 14, versus untreated HAND mice. The procedure: Four-week-old B6.CB17-Prkdc^scid/SzJ (SCID) male mice were injected IC with 30 μL of HIV-infected MDMs suspended in 0.9% saline, directly into the frontal lobe of the right hemisphere. The injection was done free-handed (without a stereotactic device). The injection is performed with a syringe that allows a very slow rate of infusion. We have verified the injection site with a histological staining in our previously published works, which is in the basal ganglia as described in Koneru et al.. Injections were performed on day 0 (D0). Treatments (baricitinib or saline) were given subcutaneously (SC).
Fourteen days after IC MDM inoculation, mice were sacrificed and brain samples were harvested and placed in a tissue preservative solution (Miltenyi, Bergisch Gladbach, Germany). Samples were then dissociated using a commercial kit and a gentleMacs dissociator (Miltenyi) into single cell suspensions. Cells were then washed in 2% BSA/PBS buffer and incubated with the following: (1) anti-murine CD45-Vioblue (1:10 dilution) and anti-murine MHCII primary antibody (1:500) followed by APC conjugated secondary antibody (1:500 dilution), or isotype-only controls; (2) GFAP-FITC (1:750 dilution 1′ antibody and 1:1000 2′ 488 (FITC) antibody (Abcam, Cambridge, UK); or (3) human (non-murine cross-reactive) CD163-APC (Miltenyi Biotec) for 30 min (Sigma Aldrich, St. Louis, MO). Cells were washed twice in 2% BSA/PBS and fixed with 2% paraformaldehyde for 15 min. Cells were washed twice in 2% BSA/PBS and analyzed for double positive cells by flow cytometry (Macs Quant analyzer and MacsQuantify software, Miltenyi Biotec).
Total events were collected using forward scatter (FSC) and side scatter […] followed by doublet discrimination (FSC-area versus FSC-height) using a MacsQuant flow cytometer (Miltenyi). No primary FSC/SSC gate was established, to allow all events to be collected within the heterogeneous size and granularity of the brain cells. GFAP^+ events were collected with gates and voltages established using 2′ antibody only. GFAP^+ low granularity gate was established with events up to one-log shift from negative population, and GFAP^+ high granularity (activated astrocytes) was established with events greater than two-log shift from negative population. MHCII and CD45 (mouse mononuclear phagocytes) expression were quantified based on quadrant gating for MHCII^+/CD45^−, CD45^+MHCII^−, MHCII^+/CD45^+, or MHCII^−/CD45^−. CD163^+ events (human Mϕ) were collected with gates established from isotype-only controls. Percentages and total events were collected.
Background: A flow cytometer gives signals particle by particle.

In the next data set the test system is HIV-infected individuals. On the set-up: method as in earlier work. To be noted: cited from earlier work.
The subject of the next data set is latent HIV in T cells. On the set-up: method as in PMID 29267399. As to conditions: cited from earlier work.
Another data set has as its system HIVE mouse model. On the set-up: method as in PMID 26851503. To be noted: cited from earlier work.

The values that follow come from PMC6764124 (Journal of Neuroinflammation, 2019).

Where two headings read alike, the source gives them in different places.

Consider `Nc1ccn([C@@H]2CS[C@H](CO)O2)c(=O)n1` [3TC], for which the “Effect on frequency of non-dividing latent CD4 T cells (dose response, Figure S1 E)” value in data set [1] is given as “did not have any effect”. In addition, in [2], the “Effect on HIV-induced activation markers HLA-DR/CD163 double positive macrophages (dose response, Figure S1 F)” value was “did not have any effect”. Further, the EC50 in data set [3] (primary activated PBM cells, read-out: EC50 inhibition of HIV replication in PBM cells) stood at 10 nM; with HIV-1baL (primary human Mϕ, read-out: EC50 inhibition of HIV replication in macrophages), 100 nM. The EC90 was 900 nM in data set [3] (primary activated PBM cells) and 1200 nM in the data set on HIV-1baL (primary human Mϕ). For the same compound, the “Effect on TNF-a induced reactivation (dose response, Figure S1 C)” value in the data set with J-lat T cells is “did not have any effect”. In addition, the “Effect on PMA induced reactivation (dose response, Figure S1 D)” value in data set [4] (macrophages) is reported as “did not have any effect”.
As for `CCS(=O)(=O)N1CC(CC#N)(n2cc(-c3ncnc4[nH]ccc34)cn2)C1` [Baricitinib], in [5], the Toxicity result is “not toxic”. In addition, the EC90 in [1] (Homo sapiens, non-dividing p24+ primary CD4+ T cells, read-out: EC90 reduction of non dividing latent CD4 T cells) stood at 700 ± 80 nM; in [2] (Macrophage, primary human macrophages, read-out: EC90 inhibition of HIV-induced HLA-DR and CD163), 1200 nM; in [3] (Human immunodeficiency virus 1, PBMC), 400 ± 70 nM; in the data set with HIV-1baL (Human immunodeficiency virus 1, Macrophage), 2100 ± 300 nM; in the data set on J-lat T cells (Homo sapiens, T-cell, read-out: EC90 inhibition of TNF-α induced reactivation), 1100 ± 300 nM; in data set [4] (Macrophage, latent primary human macrophages, 50 ng/mL PMA, 24 h, read-out: EC90 inhibition of PMA induced reactivation), 700 ± 100 nM. The “Detection in plasma and brain samples” value in data set [6] (1, 4, 8, 24 h after 10 or 50 mg/kg SC, limit of detection 5.5 ng/mL) is “detected in all plasma and brain samples except for 24 h plasma samples at 10 mg/kg”. Moreover, the Blood-brain barrier penetration entry in [6] (10 and 50 mg/kg SC, mouse) is listed as “can penetrate mouse BBB”. The Cmax in data set [6] (mouse, brain (posterior fossa: cerebellum and brainstem), 10 mg/kg single SC, read-out: Cmax in the brain) is around 40 ng/g; in data set [6] (mouse, brain (posterior fossa: cerebellum and brainstem), 50 mg/kg single SC, read-out: Cmax in the brain), around 75 ng/g; in data set [6] (mouse, plasma, 10 mg/kg single SC, read-out: Cmax in plasma) it was around 200 ng/mL; in data set [6] (mouse, plasma, 50 mg/kg single SC, read-out: Cmax in plasma), around 1400 ng/mL. In addition, the “Activated astrocytes (GFAP+; astrogliosis) in brain” value in data set [7] (10 mg/kg qd SC) and in [7] (50 mg/kg qd SC) was “reduced” each time. Further, the “Percentage of activated mouse mononuclear phagocytes (MHCII/CD45 double positive cells) in brain” value in data set [7] (10 mg/kg qd SC) and in data set [7] (50 mg/kg qd SC) was “significantly reduced” each time. The “Activated p24+ human Mϕ in brain” value in [7] (50 mg/kg qd SC (high dose)) was “significantly reduced”.
On to `N#CC[C@H](C1CCCC1)n1cc(-c2ncnc3[nH]ccc23)cn1` [ruxolitinib], for which, in the data set on HIV-infected individuals (HIV-infected, cART-suppressed individuals, versus control cART group), the Safety and tolerability entry was “safe and well-tolerated”. The “sCD14 (clinical marker for monocyte activation)” value in the data set with HIV-infected individuals (ruxolitinib arm versus cART group) is on record as “significant reduction”. Also, in the data set with latent HIV in T cells, the “Reactivation of latent HIV from T cells” value is on record as “block the reactivation”. Also, the “Effect on HIVE in mouse model” value in the data set with HIVE mouse model is “ameliorates HIVE”.
Take `C[C@@H]1CCN(C(=O)CC#N)C[C@@H]1N(C)c1ncnc2[nH]ccc12` [tofacitinib]: the “Reactivation of latent HIV from T cells” value in the data set with latent HIV in T cells was “block the reactivation”.

The EC50 is the concentration that produces a half-maximal response. By EC90 is commonly meant the point of the concentration-response curve where the effect stands at 90%. In general, Cmax refers to the maximum level reached in the sampled fluid or tissue.
